From patent US10093683B2, “Factor XIa inhibitors” (Merck Sharp & Dohme Corp., priority 2014, dated 2018)
Like-named read-outs stand apart in the source and are kept apart here.

Target: human Factor XIa (Homo sapiens (Human), UniProt P03951)
Assay: Factor XIa Assay
Type: biochemical
Settings: read-out: FXIa Ki
Outline: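 Ki derived from the dependence of Vo/Vi on inhibitor concentration under a competitive-inhibition model, after pre-equilibration of enzyme and inhibitor. Reaction: 40 pM human FXIa, 100 μM Z-Gly-Pro-Arg-AFC, HEPES 50 mM pH 7.4 with NaCl, CaCl2 and PEG 8000; run at room temperature or 37° C.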

[1] = purified human Factor XIa 40 pM, Z-Gly-Pro-Arg-AFC 100 μM, pH 7.4

Sequence of human Factor XIa (P03951 388-625): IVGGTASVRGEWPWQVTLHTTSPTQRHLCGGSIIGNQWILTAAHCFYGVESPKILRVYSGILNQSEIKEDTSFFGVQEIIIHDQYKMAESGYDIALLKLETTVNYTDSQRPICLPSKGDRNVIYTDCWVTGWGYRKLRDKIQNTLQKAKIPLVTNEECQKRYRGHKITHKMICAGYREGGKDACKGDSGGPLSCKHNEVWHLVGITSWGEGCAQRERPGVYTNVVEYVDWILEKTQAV
Sequence of human Factor XIa (P03951 19-387 partner): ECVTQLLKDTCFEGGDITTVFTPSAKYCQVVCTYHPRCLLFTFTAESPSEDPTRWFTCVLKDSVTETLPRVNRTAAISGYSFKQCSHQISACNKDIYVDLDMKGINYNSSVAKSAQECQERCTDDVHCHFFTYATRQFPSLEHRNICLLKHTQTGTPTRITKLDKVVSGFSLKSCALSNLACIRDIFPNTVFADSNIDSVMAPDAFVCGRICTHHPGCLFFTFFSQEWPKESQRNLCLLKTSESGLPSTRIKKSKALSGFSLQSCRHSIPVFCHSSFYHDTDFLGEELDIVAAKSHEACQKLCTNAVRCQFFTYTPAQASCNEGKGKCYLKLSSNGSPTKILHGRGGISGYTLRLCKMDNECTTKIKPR

Row | Structure (SMILES) | Ki [1] | Ki
1 | O=C1Nc2ccc(Cl)c(F)c2[C@@]2(CCCN(C(=O)C(Cc3ccccc3)c3nc(-c4csc(C(=O)O)c4F)c[nH]3)C2)O1 (stereo partly drawn) [Example 124, 4-(2-(1-((R)-6-chloro-5-fluoro-2-oxo-1,2-dihydrospiro[benzo[d][1,3]oxazine-4,3′-piperidin]-1′-yl)-1-oxo-3-phenylpropan-2-yl)-1H-imidazol-4-yl)-3-fluorothiophene-2-carboxylic acid] | 0.209 µM | –
2 | O=C1Nc2ccc(Cl)cc2[C@@]2(CCCN(C(=O)C(Cc3ccc(F)cc3)c3nc(Cl)c(-c4ccc(F)cc4)[nH]3)C2)O1 (stereo partly drawn) [Example 127, (4R)-6-chloro-1′-(2-(4-chloro-5-(4-fluorophenyl)-1H-imidazol-2-yl)-3-(4-fluorophenyl)propanoyl)spiro[benzo[d][1,3]oxazine-4,3′-piperidin]-2(1H)-one] | 5 µM | –
3 | O=C1Nc2ccc(Cl)cc2[C@@]2(CCCN(C(=O)C(Cc3ccc(F)cc3)c3nc(Cl)c(-c4ccc(C(=O)O)cc4)[nH]3)C2)O1 (stereo partly drawn) [Example 128, 4-(4-chloro-2-(1-((R)-6-chloro-2-oxo-1,2-dihydrospiro[benzo[d][1,3]oxazine-4,3′-piperidin]-1′-yl)-3-(4-fluorophenyl)-1-oxopropan-2-yl)-1H-imidazol-5-yl)benzoic acid] | 8.75 µM | –
4 | COC(=O)Nc1ccc(-c2ncc(C(Cc3ccccc3)C(=O)N3CC[C@@]4(C3)OC(=O)Nc3ccc(Cl)c(F)c34)[nH]2)cc1 (stereo partly drawn) [Example 130, methyl (4-(5-(1-((R)-6-chloro-5-fluoro-2-oxo-1,2-dihydrospiro[benzo[d][1,3]oxazine-4,3′-pyrrolidin]-1′-yl)-1-oxo-3-phenylpropan-2-yl)-1H-imidazol-2-yl)phenyl)carbamate] | 0.0919 µM | –
5 | COC(=O)Nc1ccc2[nH]c([C@@H](Cc3ccccc3)C(=O)N3CC[C@@]4(C3)OC(=O)Nc3ccc(Cl)cc34)nc2c1 [Example 131c, methyl (2-((R)-1-((R)-6-chloro-2-oxo-1,2-dihydrospiro[benzo[d][1,3]oxazine-4,3′-pyrrolidin]-1′-yl)-1-oxo-3-phenylpropan-2-yl)-1H-benzo[d]imidazol-5-yl)carbamate] | 0.354 µM | –
6 | COC(=O)Nc1ccc2[nH]c([C@@H](Cc3ccccc3)C(=O)N3CC[C@]4(C3)OC(=O)Nc3ccc(Cl)cc34)nc2c1 [Example 131d, methyl (2-((R)-1-((S)-6-chloro-2-oxo-1,2-dihydrospiro[benzo[d][1,3]oxazine-4,3′-pyrrolidin]-1′-yl)-1-oxo-3-phenylpropan-2-yl)-1H-benzo[d]imidazol-5-yl)carbamate] | 5 µM | –
7 | O=C1Nc2ccc(Cl)cc2[C@@]2(CCCN(C(=O)C(Cc3ccc(F)cc3)c3nc4ccc(F)cc4[nH]3)C2)O1 (stereo partly drawn) [Example 133, (4R)-6-chloro-1′-(2-(6-fluoro-1H-benzo[d]imidazol-2-yl)-3-(4-fluorophenyl)propanoyl)spiro[benzo[d][1,3]oxazine-4,3′-piperidin]-2(1H)-one] | 8.75 µM | –
8 | COC(=O)Nc1ccc2[nH]c(C(Cc3ccccc3)C(=O)N3CCC[C@@]4(C3)OC(=O)Nc3ccc(Cl)c(F)c34)cc2c1 (stereo partly drawn) [Example 134, methyl (2-(1-((R)-6-chloro-5-fluoro-2-oxo-1,2-dihydrospiro[benzo[d][1,3]oxazine-4,3′-piperidin]-1′-yl)-1-oxo-3-phenylpropan-2-yl)-1H-indol-5-yl)carbamate] | > 0.875 µM | –
9 | O=C1Nc2ccc(Cl)cc2[C@@]2(CCCN(C(=O)C(CC3CC3)Nc3n[nH]c4cc(F)ccc34)C2)O1 (stereo partly drawn) [Example 135, (4R)-6-chloro-1′-(3-cyclopropyl-2-((6-fluoro-1H-indazol-3-yl)amino)propanoyl)spiro[benzo[d][1,3]oxazine-4,3′-piperidin]-2(1H)-one] | > 8.75 µM | –
10 | COC(=O)Nc1ccc2onc(N[C@@H](Cc3ccccc3)C(=O)N3CCC[C@@]4(C3)OC(=O)Nc3ccc(Cl)cc34)c2c1 [Example 138, methyl (3-(((S)-1-((R)-6-chloro-2-oxo-1,2-dihydrospiro[benzo[d][1,3]oxazine-4,3′-piperidin]-1′-yl)-1-oxo-3-phenylpropan-2-yl)amino)benzo[d]isoxazol-5-yl)carbamate] | 8.75 µM | –
11 | NS(=O)(=O)c1ccc(C(=O)N[C@@H](Cc2ccccc2)C(=O)N2CCC3(C2)OC(=O)Nc2ccc(Cl)cc23)cc1 (stereo partly drawn) [Example 139, N-((2S)-1-(6-chloro-2-oxo-1,2-dihydrospiro[benzo[d][1,3]oxazine-4,3′-pyrrolidin]-1′-yl)-1-oxo-3-phenylpropan-2-yl)-4-sulfamoylbenzamide] | – | 0.928 µM
12 | O=C1Nc2ccc(Cl)cc2C2(CCN(C(=O)[C@H](Cc3ccccc3)NC(=O)c3ccc4[nH]ncc4c3)C2)O1 (stereo partly drawn) [Example 142] | – | 0.0484 µM
13 | Cc1nccnc1C(=O)N[C@@H](Cc1ccccc1)C(=O)N1CCC2(C1)OC(=O)Nc1ccc(Cl)cc12 (stereo partly drawn) [Example 145] | – | 3.32 µM
14 | Cc1nc(C(=O)N[C@@H](Cc2ccccc2)C(=O)N2CCC3(C2)OC(=O)Nc2ccc(Cl)cc23)co1 (stereo partly drawn) [Example 146] | – | 5 µM
15 | COc1ccc(C(=O)N[C@@H](Cc2ccccc2)C(=O)N2CCC3(C2)OC(=O)Nc2ccc(Cl)cc23)nc1 (stereo partly drawn) [Example 147] | – | 4.03 µM
16 | CS(=O)(=O)c1ccc(C(=O)N[C@@H](Cc2ccccc2)C(=O)N2CCC3(C2)OC(=O)Nc2ccc(Cl)cc23)nc1 (stereo partly drawn) [Example 148] | – | 1.87 µM
17 | N#Cc1ccc(C(=O)N[C@@H](Cc2ccccc2)C(=O)N2CCC3(C2)OC(=O)Nc2ccc(Cl)cc23)cc1 (stereo partly drawn) [Example 150, N-((2S)-1-(6-chloro-2-oxo-1,2-dihydrospiro[benzo[d][1,3]oxazine-4,3′-pyrrolidin]-1′-yl)-1-oxo-3-phenylpropan-2-yl)-4-cyanobenzamide] | – | 0.43 µM
18 | O=C1Nc2ccc(Cl)cc2C2(CCN(C(=O)[C@H](Cc3ccccc3)NC(=O)c3ccc(-c4nnn[nH]4)cc3)C2)O1 (stereo partly drawn) [Example 151, N-((2S)-1-(6-chloro-2-oxo-1,2-dihydrospiro[benzo[d][1,3]oxazine-4,3′-pyrrolidin]-1′-yl)-1-oxo-3-phenylpropan-2-yl)-4-(1H-tetrazol-5-yl)benzamide] | – | 1.78 µM
19 | N#Cc1ccc(C(=O)N[C@@H](Cc2ccccc2)C(=O)N2CCC3(C2)OC(=O)Nc2ccc(Cl)cc23)cn1 (stereo partly drawn) [Example 152] | – | 1.02 µM
20 | O=C1Nc2ccc(Cl)cc2C2(CCN(C(=O)[C@H](Cc3ccccc3)NC(=O)c3ccc4[nH]ccc4n3)C2)O1 (stereo partly drawn) [Example 153] | – | 0.488 µM
21 | O=C1Nc2ccc(Cl)cc2C2(CCN(C(=O)[C@H](Cc3ccccc3)NC(=O)c3ccccc3-n3cccn3)C2)O1 (stereo partly drawn) [Example 154, N-((2S)-1-(6-chloro-2-oxo-1,2-dihydrospiro[benzo[d][1,3]oxazine-4,3′-pyrrolidin]-1′-yl)-1-oxo-3-phenylpropan-2-yl)-2-(1H-pyrazol-1-yl)benzamide] | – | 2.52 µM
22 | O=C1Nc2ccc(Cl)cc2C2(CCN(C(=O)[C@H](Cc3ccccc3)NC(=O)c3ccnc(O)c3)C2)O1 (stereo partly drawn) [Example 155] | – | 0.169 µM

Next, values leading:

Row | Ki [1] | Ki | Structure (SMILES)
23 | ≥ 5 µM | – | O=C1Nc2ccc(Cl)cc2[C@]2(CCN(C(=O)[C@H](Cc3ccccc3)C(=O)Nc3ccc(C(=O)O)cc3)C2)O1 [Example 121b, 4-((R)-2-benzyl-3-((S)-6-chloro-2-oxo-1,2-dihydrospiro[benzo[d][1,3]oxazine-4,3′-pyrrolidin]-1′-yl)-3-oxopropanamido)benzoic acid]
24 | 0.439 µM | – | O=C1Nc2ccc(Cl)cc2[C@@]2(CCN(C(=O)[C@H](Cc3ccccc3)C(=O)Nc3ccc(C(=O)O)cc3)C2)O1 [Example 121c, 4-((R)-2-benzyl-3-((R)-6-chloro-2-oxo-1,2-dihydrospiro[benzo[d][1,3]oxazine-4,3′-pyrrolidin]-1′-yl)-3-oxopropanamido)benzoic acid]
25 | 3.78 µM | – | O=C1Nc2ccc(Cl)cc2[C@@]2(CCN(C(=O)[C@@H](Cc3ccccc3)C(=O)Nc3ccc(C(=O)O)cc3)C2)O1 [Example 121d, 4-((S)-2-benzyl-3-((R)-6-chloro-2-oxo-1,2-dihydrospiro[benzo[d][1,3]oxazine-4,3′-pyrrolidin]-1′-yl)-3-oxopropanamido)benzoic acid]
26 | 0.0336 µM | – | COC(=O)Nc1ccc(-c2c[nH]c([C@@H](Cc3ccccc3)C(=O)N3CC[C@@]4(C3)OC(=O)Nc3ccc(Cl)cc34)n2)cc1 [Example 122a, methyl (4-(2-((R)-1-((R)-6-chloro-2-oxo-1,2-dihydrospiro[benzo[d][1,3]oxazine-4,3′-pyrrolidin]-1′-yl)-1-oxo-3-phenylpropan-2-yl)-1H-imidazol-4-yl)phenyl)carbamate]
27 | 4.69 µM | – | COC(=O)Nc1ccc(-c2c[nH]c([C@H](Cc3ccccc3)C(=O)N3CC[C@]4(C3)OC(=O)Nc3ccc(Cl)cc34)n2)cc1 [Example 122b, methyl (4-(2-((S)-1-((S)-6-chloro-2-oxo-1,2-dihydrospiro[benzo[d][1,3]oxazine-4,3′-pyrrolidin]-1′-yl)-1-oxo-3-phenylpropan-2-yl)-1H-imidazol-4-yl)phenyl)carbamate]
28 | 5 µM | – | COC(=O)Nc1ccc(-c2c[nH]c([C@@H](Cc3ccccc3)C(=O)N3CC[C@]4(C3)OC(=O)Nc3ccc(Cl)cc34)n2)cc1 [Example 122c, methyl (4-(2-((R)-1-((S)-6-chloro-2-oxo-1,2-dihydrospiro[benzo[d][1,3]oxazine-4,3′-pyrrolidin]-1′-yl)-1-oxo-3-phenylpropan-2-yl)-1H-imidazol-4-yl)phenyl)carbamate]
29 | 0.364 µM | – | COC(=O)Nc1ccc(-c2c[nH]c([C@H](Cc3ccccc3)C(=O)N3CC[C@@]4(C3)OC(=O)Nc3ccc(Cl)cc34)n2)cc1 [Example 122d, methyl (4-(2-((S)-1-((R)-6-chloro-2-oxo-1,2-dihydrospiro[benzo[d][1,3]oxazine-4,3′-pyrrolidin]-1′-yl)-1-oxo-3-phenylpropan-2-yl)-1H-imidazol-4-yl)phenyl)carbamate]
30 | > 0.875 µM | – | COC(=O)Nc1ccc(-c2nnc([C@H](Cc3ccccc3)C(=O)N3CC[C@@]4(C3)OC(=O)Nc3ccc(Cl)c(F)c34)o2)cc1 [Example 129A, methyl (4-(5-((S)-1-((R)-6-chloro-5-fluoro-2-oxo-1,2-dihydrospiro[benzo[d][1,3]oxazine-4,3′-pyrrolidin]-1′-yl)-1-oxo-3-phenylpropan-2-yl)-1,3,4-oxadiazol-2-yl)phenyl)carbamate]
